Activity calls are given as the source filed them. The calls are words filed in the database; no cut-off is given here.
How the values were obtained:
Oryza sativa [1] = assay: Effect on total sugar level in Sogatella furcifera-sensitive Oryza sativa (rice) plant ARC6248 leaf sheath measured per gram of dry weight at 0.100% concentration (reference value: 25.98 mg/g dry wt); type: ADME, organism-based; conditions: in vivo
Oryza sativa [2] = assay: Effect on total sugar level in Sogatella furcifera-resistanct Oryza sativa (rice) plant PR116 leaf sheath measured per gram of dry weight at 0.100% concentration (reference value: 30.27 mg/g dry wt); type: ADME, organism-based; conditions: in vivo
Sogatella furcifera [3] = assay: Insecticidal activity against Sogatella furcifera on insect-sensitive rice plant ARC6248 assessed as growth index at 0.100% concentration (reference value: 2.38%); type: functional
Sogatella furcifera [4] = assay: Insecticidal activity against Sogatella furcifera on insect-sensitive rice plant ARC6248 assessed as reproduction at 0.100% concentration; type: functional, organism-based
Sogatella furcifera [5] = assay: Insecticidal activity against Sogatella furcifera on insect-resistanct rice plant PR116 assessed as hopper population at 0.100% concentration; type: functional, organism-based
Sogatella furcifera [6] = assay: Insecticidal activity against Sogatella furcifera on insect-sensitive rice plant ARC6248 assessed as nymphal duration at 0.100% concentration (reference value: 14.48 days); type: functional
Sogatella furcifera [7] = assay: Insecticidal activity against Sogatella furcifera on insect-resistanct rice plant PR116 assessed as nymphal duration at 0.100% concentration (reference value: 11.75 days); type: functional
Sogatella furcifera [8] = assay: Insecticidal activity against Sogatella furcifera on insect-sensitive rice plant ARC6248 assessed as resurgence ratio at 0.100% concentration; type: functional
Sogatella furcifera [9] = assay: Insecticidal activity against Sogatella furcifera on insect-resistanct rice plant PR116 assessed as resurgence ratio at 0.100% concentration; type: functional
Oryza sativa [10] = assay: Effect on total phenols level in Sogatella furcifera-sensitive Oryza sativa (rice) plant ARC6248 leaf sheath measured per gram of dry weight at 0.100% concentration (reference value: 12.75 mg/g dry wt); type: ADME, organism-based; conditions: in vivo
Oryza sativa [11] = assay: Effect on total sugar level in Sogatella furcifera-resistanct Oryza sativa (rice) plant PR116 leaf blade measured per gram of dry weight at 0.100% concentration (reference value: 36.16 mg/g dry wt); type: ADME, organism-based; conditions: in vivo
Oryza sativa [12] = assay: Effect on total amino acids level in Sogatella furcifera-sensitive Oryza sativa (rice) plant ARC6248 leaf sheath measured per gram of dry weight at 0.100% concentration (reference value: 2.11 mg/g fresh wt); type: ADME, organism-based; conditions: in vivo
Oryza sativa [13] = assay: Effect on total amino acids level in Sogatella furcifera-sensitive Oryza sativa (rice) plant ARC6248 leaf blade measured per gram of dry weight at 0.100% concentration (reference value: 3.54 mg/g fresh wt); type: ADME, organism-based; conditions: in vivo
Oryza sativa [14] = assay: Effect on total amino acids level in Sogatella furcifera-resistanct Oryza sativa (rice) plant PR116 leaf blade measured per gram of dry weight at 0.100% concentration (reference value: 3.91 mg/g […]); type: ADME, organism-based; conditions: in vivo
Oryza sativa [15] = assay: Effect on total protein level in Sogatella furcifera-sensitive Oryza sativa (rice) plant ARC6248 leaf blade measured per gram of dry weight at 0.100% concentration (reference value: 17.67 mg/g […]); type: ADME, organism-based; conditions: in vivo
Oryza sativa [16] = assay: Effect on total phenols level in Sogatella furcifera-resistanct Oryza sativa (rice) plant PR116 leaf blade measured per gram of dry weight at 0.100% concentration (reference value: 8.08 mg/g dry wt); type: ADME, organism-based; conditions: in vivo
Oryza sativa [17] = assay: Effect on reducing sugar level in Sogatella furcifera-sensitive Oryza sativa (rice) plant ARC6248 leaf blade measured per gram of dry weight at 0.100% concentration (reference value: 8.37 mg/g dry wt); type: ADME, organism-based; conditions: in vivo
Oryza sativa [18] = assay: Effect on total protein level in Sogatella furcifera-resistanct Oryza sativa (rice) plant PR116 leaf blade measured per gram of dry weight at 0.100% concentration (reference value: 21.67 mg/g fresh wt); type: ADME, organism-based; conditions: in vivo
Oryza sativa [19] = assay: Effect on total phenols level in Sogatella furcifera-sensitive Oryza sativa (rice) plant ARC6248 leaf blade measured per gram of dry weight at 0.100% concentration (reference value: 17.08 mg/g dry wt); type: ADME, organism-based; conditions: in vivo
Oryza sativa [20] = assay: Effect on reducing sugar level in Sogatella furcifera-resistanct Oryza sativa (rice) plant PR116 leaf blade measured per gram of dry weight at 0.100% concentration (reference value: 9.35 mg/g dry wt); type: ADME, organism-based; conditions: in vivo
Oryza sativa [21] = assay: Effect on total sugar level in Sogatella furcifera-sensitive Oryza sativa (rice) plant ARC6248 leaf blade measured per gram of dry weight at 0.100% concentration (reference value: 34.05 mg/g dry wt); type: ADME, organism-based; conditions: in vivo
Oryza sativa [22] = assay: Effect on total amino acids level in Sogatella furcifera-resistanct Oryza sativa (rice) plant PR116 leaf sheath measured per gram of dry weight at 0.100% concentration (reference value: 2.58 mg/g […]); type: ADME, organism-based; conditions: in vivo
Oryza sativa [23] = assay: Effect on total protein level in Sogatella furcifera-sensitive Oryza sativa (rice) plant ARC6248 leaf sheath measured per gram of dry weight at 0.100% concentration (reference value: 6.11 mg/g […]); type: ADME, organism-based; conditions: in vivo
Oryza sativa [24] = assay: Effect on total protein level in Sogatella furcifera-resistanct Oryza sativa (rice) plant PR116 leaf sheath measured per gram of dry weight at 0.100% concentration (reference value: 7.06 mg/g fresh wt); type: ADME, organism-based; conditions: in vivo
Sogatella furcifera [25] = assay: Insecticidal activity against Sogatella furcifera on insect-resistanct rice plant PR116 assessed as growth index at 0.100% concentration (reference value: 6.02%); type: functional
Sogatella furcifera [26] = assay: Insecticidal activity against Sogatella furcifera on insect-sensitive rice plant ARC6248 assessed as nymphal survival at 0.100% concentration (reference value: 34.17%); type: functional
Sogatella furcifera [27] = assay: Insecticidal activity against Sogatella furcifera on insect-resistanct rice plant PR116 assessed as nymphal survival at 0.100% concentration (reference value: 70.28%); type: functional
Oryza sativa [28] = assay: Effect on total phenols level in Sogatella furcifera-resistanct Oryza sativa (rice) plant PR116 leaf sheath measured per gram of dry weight at 0.100% concentration (reference value: 5.75 mg/g dry wt); type: ADME, organism-based; conditions: in vivo
Oryza sativa [29] = assay: Effect on reducing sugar level in Sogatella furcifera-sensitive Oryza sativa (rice) plant ARC6248 leaf sheath measured per gram of dry weight at 0.100% concentration (reference value: 6.41 mg/g dry wt); type: ADME, organism-based; conditions: in vivo
Oryza sativa [30] = assay: Effect on reducing sugar level in Sogatella furcifera-resistanct Oryza sativa (rice) plant PR116 leaf sheath measured per gram of dry weight at 0.100% concentration (reference value: 7.50 mg/g dry wt); type: ADME, organism-based; conditions: in vivo

| SMILES | Activity (Oryza sativa [1]) | Activity (Oryza sativa [2]) | growth inhibition (GI) (Sogatella furcifera [3]) | Activity (Sogatella furcifera [4]) | Activity (Sogatella furcifera [5]) | Time (Sogatella furcifera [6]) | Time (Sogatella furcifera [7]) | Ratio (Sogatella furcifera [8]) | Ratio (Sogatella furcifera [9]) | Activity (Oryza sativa [10]) | Activity (Oryza sativa [11]) | Activity (Oryza sativa [12]) | Activity (Oryza sativa [13]) | Activity (Oryza sativa [14]) | Activity (Oryza sativa [15]) | Activity (Oryza sativa [16]) | Activity (Oryza sativa [17]) | Activity (Oryza sativa [18]) | Activity (Oryza sativa [19]) | Activity (Oryza sativa [20]) | further results |
| --- | --- | --- | --- | --- | --- | --- | --- | --- | --- | --- | --- | --- | --- | --- | --- | --- | --- | --- | --- | --- | --- |
| CCOP(=S)(OCC)Oc1nc(Cl)c(Cl)cc1Cl [CHLORPYRIFOS] | 25.98 mg | 31.34 mg | 2.25% | inactive | inactive | 14.63 days | 11.75 days | <1 | <1 | 14.08 mg | 39.37 mg | 1.75 mg | 3 mg | 4 mg | 18.22 mg | 7.67 mg | 7.5 mg | 19.44 mg | 18.75 mg | 9.13 mg | Activity (Oryza sativa [21]): 33.21 mg; Activity (Oryza sativa [22]): 2.22 mg; Activity (Oryza sativa [23]): 5 mg; Activity (Oryza sativa [24]): 7.72 mg; growth inhibition (GI) (Sogatella furcifera [25]): 5.94%; Survival (Sogatella furcifera [26]): 32.5%; Survival (Sogatella furcifera [27]): 69.45%; Activity (Oryza sativa [28]): 6.08 mg; Activity (Oryza sativa [29]): 6.31 mg; Activity (Oryza sativa [30]): 7.72 mg |
| O=S1OCC2C(CO1)C1(Cl)C(Cl)=C(Cl)C2(Cl)C1(Cl)Cl (stereo not given) [ENDOSULFAN] | 30 mg | 28.12 mg | 2.24% | inactive | inactive | 14.5 days | 12 days | <1 | <1 | 17.08 mg | 34.02 mg | 2.46 mg | 3.31 mg | 3.38 mg | 16.56 mg | 10 mg | 7.94 mg | 18.33 mg | 21.75 mg | 8.26 mg | Activity (Oryza sativa [21]): 34.55 mg; Activity (Oryza sativa [22]): 2.4 mg; Activity (Oryza sativa [23]): 5 mg; Activity (Oryza sativa [24]): 7.78 mg; growth inhibition (GI) (Sogatella furcifera [25]): 5.66%; Survival (Sogatella furcifera [26]): 32.22%; Survival (Sogatella furcifera [27]): 67.5%; Activity (Oryza sativa [28]): 7.83 mg; Activity (Oryza sativa [29]): 5.98 mg; Activity (Oryza sativa [30]): 7.17 mg |
| CCOP(=S)(OCC)Oc1cnc2ccccc2n1 [QUINALPHOS] | 31.87 mg | 30.27 mg | 2.61% | inactive | inactive | 14.46 days | 11.65 days | 1.13 | 1.31 | 1308 mg | 42.05 mg | 2.38 mg | 3.61 mg | 4.89 mg | 21.56 mg | 6.75 mg | 10 mg | 22.78 mg | 17.08 mg | 13.04 mg | Activity (Oryza sativa [21]): 38.84 mg; Activity (Oryza sativa [22]): 2.93 mg; Activity (Oryza sativa [23]): 7.22 mg; Activity (Oryza sativa [24]): 8.5 mg; growth inhibition (GI) (Sogatella furcifera [25]): 6.24%; Survival (Sogatella furcifera [26]): 37.5%; Survival (Sogatella furcifera [27]): 72.22%; Activity (Oryza sativa [28]): 5.67 mg; Activity (Oryza sativa [29]): 8.8 mg; Activity (Oryza sativa [30]): 11.31 mg |
